The term melting point denotes the temperature of the solid-liquid transition.

Each structure is given as a SMILES string. Entries after “also recorded” stand apart in the source; their conditions may differ.

The target of data set [1] is T1, 5-LO (Solanum tuberosum, UniProt P37831). The experiment in a line: Effect on 5-LO catalysed oxidation of arachidonic acid. The class given is biochemical. The following applies: preliminary experiment; purified enzyme; result in words. The method, then:
Based on this consideration, 5-LO, 12-LO and 15-LO catalysed oxidation of the nitro compounds (4a, 4b, 6a, 6b, 8a and 8b) was investigated. Each of the nitro compounds was treated with 15-LO in pH 9.0 buffer (or 5-LO in pH 6.3 buffer and 12-LO in pH 7.4 buffer), and the formation of 15-hydroperoxy derivatives (or 5-hydroperoxy or 12-hydroperoxy derivatives) over time was monitored by LW spectroscopy at 234 nm. […]

Data set [2] addresses T2, 12-LO (Sus scrofa, UniProt P16469).
T2 construct: purchased Cayman Chemical Company
T2 sequence (P16469 1-663): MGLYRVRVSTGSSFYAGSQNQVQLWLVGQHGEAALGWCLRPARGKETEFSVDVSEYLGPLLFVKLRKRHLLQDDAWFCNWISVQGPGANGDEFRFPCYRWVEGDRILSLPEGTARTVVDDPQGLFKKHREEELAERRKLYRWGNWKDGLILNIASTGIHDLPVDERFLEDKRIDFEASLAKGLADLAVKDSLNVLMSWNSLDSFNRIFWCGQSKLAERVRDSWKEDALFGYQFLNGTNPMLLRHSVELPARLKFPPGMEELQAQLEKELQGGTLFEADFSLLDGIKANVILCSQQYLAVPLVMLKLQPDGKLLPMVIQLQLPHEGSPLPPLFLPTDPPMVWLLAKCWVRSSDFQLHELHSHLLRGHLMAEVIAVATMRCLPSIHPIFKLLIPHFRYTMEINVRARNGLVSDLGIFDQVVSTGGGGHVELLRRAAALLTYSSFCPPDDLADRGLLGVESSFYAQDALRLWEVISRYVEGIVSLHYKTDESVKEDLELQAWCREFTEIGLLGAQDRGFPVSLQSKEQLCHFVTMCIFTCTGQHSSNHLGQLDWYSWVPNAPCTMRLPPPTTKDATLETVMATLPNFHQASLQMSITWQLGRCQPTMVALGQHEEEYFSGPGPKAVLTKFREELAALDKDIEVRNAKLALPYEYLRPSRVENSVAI
The experiment in a line: Effect on 12-LO catalysed oxidation of arachidonic acid. The class given is biochemical, porcine. To be noted: preliminary experiment; result in words. Here is the method:
(§1) Based on this consideration, 5-LO, 12-LO and 15-LO catalysed oxidation of the nitro compounds (4a, 4b, 6a, 6b, 8a and 8b) was investigated. Each of the nitro compounds was treated with 15-LO in pH 9.0 buffer (or 5-LO in pH 6.3 buffer and 12-LO in pH 7.4 buffer), and the formation of 15-hydroperoxy derivatives (or 5-hydroperoxy or 12-hydroperoxy derivatives) over time was monitored by LW spectroscopy at 234 nm.
A number of Lx compounds were tested for anti 5-LOX and 12-LOX activities in the human breast cancer cell line, MCF-7. […] The ability of 5-LOX and 12-LOX to produce oxidated products of 20:4n-6 with a different absorption wavelength in the presence of nitroso-PUFA was examined and is shown in the progress curves in FIG. 6. […] Within cells, activation of 5-LOX is facilitated by 5-LOX activating protein (FLAP). Thus, in intact cells, Lx7 and Lx9 may be able to activate 5-LOX at lower concentrations than those required in the purified enzyme system shown in FIG. 6. […] By being able to activate 5-LOX and suppress 12-LOX, these compounds have the desired characteristics of anti-breast cancer agents as discussed previously.
(§2) 15-LO was obtained from Sigma Chemical Company, and 12-LO from Cayman Chemical Company. Arachidonic acid 1, linolenyl alcohol 57a, gamma linolenyl alcohol 5b, arachidonyl alcohol 57c and docosahexaenyl alcohol 57d were purchased from Nu-Chek Prep. Inc. Elysian, Minn., USA. Other chemicals were commercially available from Aldrich Chemical Company.

The target in data set [3] is T3, 15-LO (Glycine max, UniProt P08170).
T3 construct: purchased Sigma Chemical Company
T3 sequence (P08170 1-839): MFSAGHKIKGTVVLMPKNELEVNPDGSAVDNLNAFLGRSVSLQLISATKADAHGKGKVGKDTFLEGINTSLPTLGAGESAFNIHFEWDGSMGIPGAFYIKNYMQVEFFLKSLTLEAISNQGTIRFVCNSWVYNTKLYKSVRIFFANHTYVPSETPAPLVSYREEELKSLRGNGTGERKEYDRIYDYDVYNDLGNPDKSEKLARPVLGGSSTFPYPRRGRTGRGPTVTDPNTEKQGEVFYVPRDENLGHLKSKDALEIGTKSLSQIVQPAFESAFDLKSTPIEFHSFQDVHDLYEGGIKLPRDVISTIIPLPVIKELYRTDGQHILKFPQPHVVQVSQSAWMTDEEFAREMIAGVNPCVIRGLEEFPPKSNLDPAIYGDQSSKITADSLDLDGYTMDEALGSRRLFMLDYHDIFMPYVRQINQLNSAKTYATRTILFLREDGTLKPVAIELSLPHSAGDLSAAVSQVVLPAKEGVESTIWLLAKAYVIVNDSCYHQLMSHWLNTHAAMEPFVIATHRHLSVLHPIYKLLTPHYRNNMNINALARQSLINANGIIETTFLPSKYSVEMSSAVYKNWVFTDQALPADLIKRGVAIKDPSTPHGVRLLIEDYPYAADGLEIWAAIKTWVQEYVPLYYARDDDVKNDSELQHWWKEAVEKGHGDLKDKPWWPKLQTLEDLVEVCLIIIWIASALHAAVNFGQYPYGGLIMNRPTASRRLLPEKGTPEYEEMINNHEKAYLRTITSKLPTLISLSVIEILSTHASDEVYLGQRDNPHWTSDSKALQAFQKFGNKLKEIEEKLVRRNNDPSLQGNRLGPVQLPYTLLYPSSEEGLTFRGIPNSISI
The experiment in a line: 15-LO catalysed oxidation of the nitro compounds (substrate test). The following applies: pH 9.0 buffer, 234 nm. Type of data set: biochemical, soybean. The method, then:
as §1

Data set [4] concerns the target T1, 5-LO. Nature of the data set: 5-LO catalysed oxidation of the nitro compounds (substrate test). The class given is biochemical. The following applies: pH 6.3 buffer, 234 nm. Here is the method:
as §1

Data set [5] has as its target T2, 12-LO. The experiment in a line: 12-LO catalysed oxidation of the nitro compounds (substrate test). Type of data set: biochemical, porcine. The following applies: pH 7.4 buffer, 234 nm. The method, then:
as §1

The test system of data set [6] is MCF-7 cells. The experiment in a line: Killing of MCF-7 breast cancer cells in vitro. Type of data set: cell-based, human. The following applies: in vitro (FIG. 7); compared with 20:4n-6 toxicity. The source says: While interference with 5-LOX or 12-LOX activity individually impacts on growth rates of human breast cancer MCF-7 cells^(55,56), the simultaneous modification of the activities of both enzymes at once may cause death. […] Lx4, a nitroso-compound with the same number of carbon atoms and degree of unsaturation as Lx9 but lacking a COOH group, was ineffective (FIG. 7).

Data set [7] has as its target T3, 15-LO. The experiment in a line: Effect on 15-LO catalysed oxidation of arachidonic acid. Type of data set: biochemical, soybean. To be noted: preliminary experiment, result in words.
Data set [8] addresses T3, 15-LO. Described as above. To be noted: varying concentrations of compound. The class given is biochemical, soybean. The method, then: as §1
The inhibitor constant (Ki or KI) of compound 8a was also determined.
as §2

Data set [9] has as its system DU145 cells. Nature of the data set: DU145 tumour cell survival (MTS cell proliferation assay). The class given is cell-based, human. To be noted: 24 h, MTS assay (FIG. 5A). Here is the method:
Lx compounds were tested for activity against two androgen insensitive prostate cancer tumour cell lines, DU145(liver metastases) and PC3(brain metastases). […] Survival was measured using the MTS cell proliferation assay.
Various concentrations for varying amounts of time of Lx compounds were added to either DU145 or PC3 tumour cells in culture. Viability/death of tumour cells was measured by a standard colourimetric assay. […] It is also evident from the results (FIG. 2) that the saturated nitro compound Lx1 (19:0-NO2) is not active and neither is MP2 (β-thia 23:0), a saturated […] fatty acid. […] In a further screening test, the human prostate cell line, DU145 cells (liver metastases), was treated for 24 hrs with 20 μM Fatty Acid and cell survival was measured using the MTS cell proliferation assay. This assay uses colourimetric measurement of substrate conversion to formazan which occurs only in the presence of NADH in a metabolically active cell. There was varied anti-tumour activity amongst the different types of PUFA.
(§3) DU145 cells were treated with PUFA and incubated for 24 h (for the proliferation assay), 4 h (for the caspase assay) and for 18 h (for PARP cleavage).
(§4) Proliferation was quantitated by MTS assay. Caspases 3 and 7 were assayed by a fluorometric assay using a […] substrate. PARP cleavage was measured by Western blots using an anti PARP antibody.
In general terms: Tetrazolium dyes change colour on reduction, which living cells bring about.

Data set [10] concerns Caspases 3 and 7. The experiment in a line: Caspase 3 and 7 fluorometric assay in DU145 cells. The class given is cell-based, human. Here is the method:
as §3, §4

For data set [11], the system named is PARP. Nature of the data set: PARP cleavage by Western blot in DU145 cells. Type of data set: cell-based, human. To be noted: 18 h, anti PARP antibody (FIG. 5C). The method, then:
as §3, §4

Setting [12] is: listed as (all-Z)-1-nitrotricosa-8,11,14,17-tetraenoic acid.

T1 sequence (P37831 whole entry): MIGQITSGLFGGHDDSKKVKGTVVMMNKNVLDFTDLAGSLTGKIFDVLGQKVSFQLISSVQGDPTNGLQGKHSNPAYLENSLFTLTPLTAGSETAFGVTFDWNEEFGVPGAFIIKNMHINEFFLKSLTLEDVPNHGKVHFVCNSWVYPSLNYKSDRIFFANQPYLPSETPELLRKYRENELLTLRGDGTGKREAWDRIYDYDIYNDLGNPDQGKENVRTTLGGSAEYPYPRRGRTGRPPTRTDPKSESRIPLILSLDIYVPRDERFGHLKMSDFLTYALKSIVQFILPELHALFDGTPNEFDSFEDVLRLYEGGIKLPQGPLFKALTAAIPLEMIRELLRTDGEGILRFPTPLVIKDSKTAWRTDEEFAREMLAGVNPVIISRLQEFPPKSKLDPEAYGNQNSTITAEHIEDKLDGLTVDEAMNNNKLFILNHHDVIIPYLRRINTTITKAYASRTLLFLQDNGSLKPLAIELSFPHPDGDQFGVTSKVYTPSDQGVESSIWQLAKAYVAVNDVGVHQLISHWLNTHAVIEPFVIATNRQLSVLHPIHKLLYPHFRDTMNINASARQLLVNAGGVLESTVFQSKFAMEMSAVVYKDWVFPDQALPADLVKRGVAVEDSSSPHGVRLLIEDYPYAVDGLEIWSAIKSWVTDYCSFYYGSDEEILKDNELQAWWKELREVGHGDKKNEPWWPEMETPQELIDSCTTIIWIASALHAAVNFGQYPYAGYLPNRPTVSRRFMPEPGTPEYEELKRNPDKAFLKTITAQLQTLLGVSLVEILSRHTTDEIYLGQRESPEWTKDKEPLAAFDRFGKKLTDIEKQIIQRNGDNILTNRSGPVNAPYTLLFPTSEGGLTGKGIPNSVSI

With `CCCCC/C=C\C/C=C\C/C=C\C/C=C\CCCC(CCC(=O)O)[N+](=O)[O-]` (stereo not drawn) [Lx7, (all-Z)-4-Nitrotricosa-8,11,14,17-tetraenoic acid], the “Effect on 5-LO catalysed oxidation of AA” value in data set [1] is reported as “can activate 5-LOX; also recorded: Activatory”. Also, in data set [2], the “Effect on 12-LO catalysed oxidation of AA” value is given as “Substrate”. Besides, the “Substrate for 15-LO (formation of 15-hydroperoxy derivative)” value in data set [3] (listed as 6b) was “served as a substrate”; in data set [3] (setting [12]), “good substrate; also recorded: comparable to that of arachidonic acid”. Also, the “Substrate for 5-LO (formation of 5-hydroperoxy derivative)” value in [4] was “not for 5-LO”. For the same compound, the “Substrate for 12-LO (formation of 12-hydroperoxy derivative)” value is reported as “substrate for 12-LOX” in [5], “served as a substrate” in data set [5] (listed as 6b) and “good substrate” in [5] (setting [12]). Besides, in [6], the “Killing of MCF-7 tumour cells” value is reported as “kill these tumour cells”. For the same compound, in [7], the “Effect on 15-LO catalysed oxidation of AA” value was “Substrate”.
For `CCCCCCCCCCCCCCCCCC(CCC(=O)O)(CCC(=O)O)[N+](=O)[O-]` [Lx8, 3-Heptadecyl-3-nitropentane-1,5-dicarboxylic acid], the melting point is 102 °C. For the same compound, the “Inhibition pattern on 15-LO (1/v vs 1/[s])” value in data set [8] is recorded as “mixed inhibition pattern”. In data set [1], the “Effect on 5-LO catalysed oxidation of AA” value is on record as “Nil”. Moreover, in [2], the “Effect on 12-LO catalysed oxidation of AA” value is given as “Activatory”. The “Effect on 15-LO catalysed oxidation of AA” value in data set [7] is reported as “Inhibitory”. Further, the “Effect on 15-LO catalysed oxidation of AA” value in data set [7] (listed as 3-heptadecyl-3-nitropentane-1,5-dicarboxylic acid) was “selective inhibitors”. Further, in [7] (listed as 8a), the “Effect on 15-LO catalysed oxidation of AA” value is “inhibitory effect”.
With `CC/C=C\C/C=C\C/C=C\CCCCCCCCOCC(=O)O` [MP5, (Z,Z,Z)-(octadeca-9,12,15-trienyloxy) acetic acid], in data set [9], the DU145 cell proliferation result is “marked inhibition of cell proliferation”. In data set [10] (DU145 cells, 4 h (FIG. 5B)), the Activation of caspases entry is reported as “activation of caspases”. Besides, in data set [10] (concluded from caspase activation and PARP cleavage), the “Induction of apoptosis in DU145 cells” value is on record as “induce apoptosis”. Moreover, in [11], the PARP cleavage entry is given as “cleavage of PARP”.

The record behind these values is US20050222253A1, “Anti-cancer nitro- and thia-fatty acids” (priority 1999, published 2005).
